{"source": "patent US20250049733A1", "about": "“PHARMACEUTICAL COMPOSITION FOR THE TREATMENT OF INFECTIOUS RESPIRATORY DISEASES CAUSED BY INFLUENZA AND SARS-COV-2, AMONG OTHERS” (ALPARIS, S.A. DE C.V., priority 2021, published 2025)", "origin": "cited, not measured here", "key": {"[1]": {"conditions": "in vivo"}, "rheumatoid arthritis": {"tested_on": "rheumatoid arthritis", "conditions": "8 weeks of treatment with 1 g of curcumin daily; meta-analysis"}, "[2]": {"tested_on": "Respiratory Syncytal Virus (RSV)"}, "[3]": {"tested_on": "tumor necrosis factor-alpha (TNF-α) and interleukin-6 (IL-6)", "conditions": "randomized controlled trials"}}}
{"smiles": "COc1cc(/C=C/C(=O)CC(=O)/C=C/c2ccc(O)c(OC)c2)ccc1O", "note": "[curcumin, (1E,6E)-1,7-bis(4-hydroxy-3-methoxyphenyl)-1,6-heptadiene-3,5-dione]", "values": [{"measurement": "IC50, antiviral action against Herpes simplex virus", "setting": "Herpes simplex virus", "result": 11.05, "unit": "mg/L"}, {"measurement": "half-life", "setting": "[1]", "result": "about 8 hours"}, {"measurement": "symptoms associated with inflammation in rheumatoid arthritis", "setting": "rheumatoid arthritis", "result": "can reduce symptoms associated with inflammation"}, {"measurement": "IC50, antiviral action against SARS-CoV2", "setting": "SARS-CoV2 viruses", "result": 7.9, "unit": "mg/L"}, {"measurement": "IC50, antiviral action against Respiratory Syncytal Virus (RSV)", "setting": "[2]", "result": 10, "unit": "mg/L"}, {"measurement": "secretion of TNF-α and IL-6", "setting": "[3]", "result": "significantly reduces"}, {"measurement": "IC50, antiviral action against influenza", "setting": "influenza", "result": 0.17, "unit": "mg/L"}, {"measurement": "IC50, antiviral action against Hepatitis", "setting": "Hepatitis", "result": 1.68, "unit": "mg/L"}]}
